Experimental data from patent publication US8455475B2 (Gruenenthal GmbH, priority 2009, dated 2013).

How the values were obtained:
[1] = target: T1, human B1R (bradykinin receptor 1) (Homo sapiens, UniProt P46663); assay: FLIPR Ca2+ assay (Fluo-4) on CHO K1 cells stably transfected with the human B1R gene (hB1R cells): % inhibition at 10 μM / IC50, agonist Lys-Des-Arg9-bradykinin; format: cell-based; settings: for inhibition at 10 µM: CHO-K1, human B1R
T1 construct: expressed in transfected cells; host or cells: CHO K1 cells
T1 sequence (P46663 1-353): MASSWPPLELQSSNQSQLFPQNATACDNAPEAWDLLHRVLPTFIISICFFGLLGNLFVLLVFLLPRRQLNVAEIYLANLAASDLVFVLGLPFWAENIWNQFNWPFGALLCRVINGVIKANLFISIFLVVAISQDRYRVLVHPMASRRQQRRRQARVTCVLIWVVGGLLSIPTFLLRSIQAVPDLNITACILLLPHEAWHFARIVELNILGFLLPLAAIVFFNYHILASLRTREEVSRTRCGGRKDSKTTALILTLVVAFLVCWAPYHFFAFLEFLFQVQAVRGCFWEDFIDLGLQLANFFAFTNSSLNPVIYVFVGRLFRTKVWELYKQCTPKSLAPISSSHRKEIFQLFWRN
Outline: (§1)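 Stable CHO K1 lines, Fluo-4 dye, probenecid-containing buffer. Cpd 10 μM or dose range, 10–20 min, then EC80 agonist (h: Lys-Des-Arg9-BK; r: Des-Arg9-BK). Readout peak FC; % inhibition vs max; IC50 from n=2–3, N≥2.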

[2] = target: T2, rat B1R (bradykinin receptor 1) (Rattus norvegicus, UniProt P97583); assay: FLIPR Ca2+ assay (Fluo-4) on CHO K1 cells stably transfected with the B1R gene of the rat (rB1R cells): % inhibition at 10 μM / IC50, agonist Des-Arg9-bradykinin; format: cell-based; settings: for inhibition at 10 µM: CHO-K1, rat B1R
T2 construct: expressed in transfected cells; host or cells: CHO K1 cells
T2 sequence (P97583 1-337): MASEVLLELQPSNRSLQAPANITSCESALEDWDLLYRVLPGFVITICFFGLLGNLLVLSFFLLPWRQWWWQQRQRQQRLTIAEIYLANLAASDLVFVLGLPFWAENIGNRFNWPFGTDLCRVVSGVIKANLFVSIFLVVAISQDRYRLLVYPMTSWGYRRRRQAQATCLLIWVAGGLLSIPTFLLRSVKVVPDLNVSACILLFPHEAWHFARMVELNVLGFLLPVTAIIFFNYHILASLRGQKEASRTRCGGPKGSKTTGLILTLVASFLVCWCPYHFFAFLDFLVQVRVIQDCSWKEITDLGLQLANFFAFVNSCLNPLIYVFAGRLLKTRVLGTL
Outline: as §1

SMILES | inhibition at 10 µM [1] | inhibition at 10 µM [2] | other results
O=C(NC1CCc2ccc(C(=O)N3CCC4(CCN(c5ccncc5)CC4)C3)cc21)c1ccccc1C(F)(F)F (stereo not drawn) [Ind_CC-081, N-[6-(8-pyridin-4-yl-3,8-diazaspiro[4.5]decane-3-carbonyl)-2,3-dihydro-1H-inden-1-yl]-2-(trifluoromethyl)-benzamide] | 99% | 101% | –
O=C(NC1CCc2ccc(C(=O)N3CCC4(CCN(c5ccncc5)CC4)C3)cc21)C(c1ccccc1)c1ccccc1Cl (stereo not drawn) [Ind_CC-082, 2-(2-chlorophenyl)-2-phenyl-N-[6-(8-pyridin-4-yl-3,8-diazaspiro[4.5]decane-3-carbonyl)-2,3-dihydro-1H-inden-1-yl]-acetamide] | 100% | 101% | –
O=C(NC1CCc2ccc(C(=O)N3CCC4(CCN(c5ccncc5)CC4)C3)cc21)c1ccccn1 (stereo not drawn) [Ind_CC-084, N-[6-(8-pyridin-4-yl-3,8-diazaspiro[4.5]decane-3-carbonyl)-2,3-dihydro-1H-inden-1-yl]-pyridine-2-carboxylic acid amide] | 99% | 100% | –
O=C(Nc1ccc(Cl)c(Cl)c1)NC1CCc2ccc(C(=O)N3CCC4(CCN(c5ccncc5)CC4)C3)cc21 (stereo not drawn) [Ind_CC-085] | – | – | % Inhibition (human B1R) at 10 μM [1]: 91%; % Inhibition (rat B1R) at 10 μM [2]: 77%
COc1cc(C)c(C(=O)NC2CCc3ccc(C(=O)N4CCC5(CC4)CCN(c4cccnc4)CC5)cc32)c(C)c1 (stereo not drawn) [Ind_CC-090, 4-methoxy-2,6-dimethyl-N-[6-(9-pyridin-3-yl-3,9-diazaspiro[5.5]undecane-3-carbonyl)-2,3-dihydro-1H-inden-1-yl]-benzamide] | 42% | 100% | –
COc1cc(C)c(C(=O)NC2CCc3ccc(C(=O)N4CCC5(CC4)CCN(c4ccc(F)cc4)CC5)cc32)c(C)c1 (stereo not drawn) [Ind_CC-091, N-[6-[9-(4-fluorophenyl)-3,9-diazaspiro[5.5]undecane-3-carbonyl]-2,3-dihydro-1H-inden-1-yl]-4-methoxy-2,6-dimethyl-benzamide] | 24% | 50% | –
COc1cc(C)c(C(=O)NC2CCc3ccc(C(=O)N4CCC5(CCN(Cc6ccncc6)CC5)CC4)cc32)c(C)c1 (stereo not drawn) [Ind_CC-092, 4-methoxy-2,6-dimethyl-N-[6-[9-(pyridin-4-yl-methyl)-3,9-diazaspiro[5.5]undecane-3-carbonyl]-2,3-dihydro-1H-inden-1-yl]-benzamide] | 78% | 101% | –
COc1cc(C)c(C(=O)NC2CCc3ccc(C(=O)N4CCC5(CC4)CCC(c4ccc(F)cc4)(N(C)C)CC5)cc32)c(C)c1 (stereo not drawn) [Ind_CC-093, N-[6-[9-dimethylamino-9-(4-fluorophenyl)-3-azaspiro[5.5]undecane-3-carbonyl]-2,3-dihydro-1H-inden-1-yl]-4-methoxy-2,6-dimethyl-benzamide] | 34% | 74% | –
COc1cc(C)c(C(=O)NC2CCc3ccc(C(=O)N4CCC5(CC4)CCN(c4ccncc4)C5)cc32)c(C)c1 (stereo not drawn) [Ind_CC-094, 4-methoxy-2,6-dimethyl-N-[6-(2-pyridin-4-yl-2,8-diazaspiro[4.5]decane-8-carbonyl)-2,3-dihydro-1H-inden-1-yl]-benzamide] | 42% | 65% | –
O=C(NC1CCc2ccc(C(=O)N3CCC4(CC3)CCN(c3ccncc3)CC4)cc21)c1ccccc1Cl (stereo not drawn) [Ind_CC-095, 2-chloro-N-[6-(9-pyridin-4-yl-3,9-diazaspiro[5.5]undecane-3-carbonyl)-2,3-dihydro-1H-inden-1-yl]-benzamide] | – | – | % Inhibition (human B1R) at 10 μM ([1]; 10 µM): 99%; % Inhibition (rat B1R) at 10 μM ([2]; 10 µM): 99%
O=C(NC1CCc2ccc(C(=O)N3CCC4(CC3)CCN(c3cccnc3)CC4)cc21)c1ccccc1Cl (stereo not drawn) [Ind_CC-096, 2-chloro-N-[6-(9-pyridin-3-yl-3,9-diazaspiro[5.5]undecane-3-carbonyl)-2,3-dihydro-1H-inden-1-yl]-benzamide] | 91% | 101% | –
O=C(NC1CCc2ccc(C(=O)N3CCC4(CC3)CCN(c3ccc(F)cc3)CC4)cc21)c1ccccc1Cl (stereo not drawn) [Ind_CC-097, 2-chloro-N-[6-[9-(4-fluorophenyl)-3,9-diazaspiro[5.5]undecane-3-carbonyl]-2,3-dihydro-1H-inden-1-yl]-benzamide] | 33% | 90% | –
O=C(NC1CCc2ccc(C(=O)N3CCC4(CCN(Cc5ccncc5)CC4)CC3)cc21)c1ccccc1Cl (stereo not drawn) [Ind_CC-098, 2-chloro-N-[6-[9-(pyridin-4-yl-methyl)-3,9-diazaspiro[5.5]undecane-3-carbonyl]-2,3-dihydro-1H-inden-1-yl]-benzamide] | 34% | 98% | –
CN(C)C1(c2ccc(F)cc2)CCC2(CCN(C(=O)c3ccc4c(c3)C(NC(=O)c3ccccc3Cl)CC4)CC2)CC1 (stereo not drawn) [Ind_CC-099, 2-chloro-N-[6-[9-dimethylamino-9-(4-fluorophenyl)-3-azaspiro[5.5]undecane-3-carbonyl]-2,3-dihydro-1H-inden-1-yl]-benzamide] | 39% | 103% | –
O=C(NC1CCc2ccc(C(=O)N3CCC4(CCN(c5ccncc5)CC4)C3)cc21)c1ccccc1Cl (stereo not drawn) [Ind_CC-100, 2-chloro-N-[6-(8-pyridin-4-yl-2,8-diazaspiro[4.5]decane-2-carbonyl)-2,3-dihydro-1H-inden-1-yl]-benzamide] | 100% | 104% | –

Second part, led by results:

inhibition at 10 µM [1] | inhibition at 10 µM [2] | SMILES | other results
100% | 102% | CC1(C)CC(NC(=O)c2ccc(Cl)cc2Cl)c2cc(C(=O)N3CCC4(CC3)CCN(c3ccncc3)CC4)ccc21 (stereo not drawn) [Ind_CC-059, 2,4-dichloro-N-[3,3-dimethyl-6-(9-pyridin-4-yl-3,9-diazaspiro[5.5]undecane-3-carbonyl)-1,2-dihydro-inden-1-yl]-benzamide] | –
93% | 94% | CC1(C)CC(NC(=O)/C=C/c2ccccc2Cl)c2cc(C(=O)N3CCC4(CC3)CCN(c3ccncc3)CC4)ccc21 (stereo not drawn) [Ind_CC-060, (E)-3-(2-chlorophenyl)-N-[3,3-dimethyl-6-(9-pyridin-4-yl-3,9-diazaspiro[5.5]undecane-3-carbonyl)-1,2-dihydro-inden-1-yl]-acrylamide] | –
100% | 103% | CC1(C)CC(NC(=O)NCc2ccccc2Cl)c2cc(C(=O)N3CCC4(CC3)CCN(c3ccncc3)CC4)ccc21 (stereo not drawn) [Ind_CC-061, 1-[(2-chlorophenyl)-methyl]-3-[3,3-dimethyl-6-(9-pyridin-4-yl-3,9-diazaspiro[5.5]undecane-3-carbonyl)-1,2-dihydro-inden-1-yl]-urea] | –
95% | 101% | CC1(C)Cc2ccc(C(=O)N3CCC4(CC3)CCN(c3ccncc3)CC4)cc2C1NC(=O)c1ccccc1C(F)(F)F (stereo not drawn) [Ind_CC-064, N-[2,2-dimethyl-6-(9-pyridin-4-yl-3,9-diazaspiro[5.5]undecane-3-carbonyl)-1,3-dihydro-inden-1-yl]-2-(trifluoromethyl)-benzamide] | –
94% | 98% | CC1(C)Cc2ccc(C(=O)N3CCC4(CC3)CCN(c3ccncc3)CC4)cc2C1NC(=O)c1sccc1Cl (stereo not drawn) [Ind_CC-065, 3-chloro-N-[2,2-dimethyl-6-(9-pyridin-4-yl-3,9-diazaspiro[5.5]undecane-3-carbonyl)-1,3-dihydro-inden-1-yl]-thiophene-2-carboxylic acid amide] | –
82% | 98% | CC1(C)Cc2ccc(C(=O)N3CCC4(CC3)CCN(c3ccncc3)CC4)cc2C1NC(=O)c1ccc(Cl)s1 (stereo not drawn) [Ind_CC-066, 5-chloro-N-[2,2-dimethyl-6-(9-pyridin-4-yl-3,9-diazaspiro[5.5]undecane-3-carbonyl)-1,3-dihydro-inden-1-yl]-thiophene-2-carboxylic acid amide] | –
94% | 101% | CC1(C)Cc2ccc(C(=O)N3CCC4(CC3)CCN(c3ccncc3)CC4)cc2C1NC(=O)c1ccc(Cl)cc1Cl (stereo not drawn) [Ind_CC-067, 2,4-dichloro-N-[2,2-dimethyl-6-(9-pyridin-4-yl-3,9-diazaspiro[5.5]undecane-3-carbonyl)-1,3-dihydro-inden-1-yl]-benzamide] | –
90% | 85% | O=C(/C=C/c1ccccc1Cl)NC1CCc2ccc(C(=O)N3CCC4(CCN(c5ccncc5)CC4)C3)cc21 (stereo not drawn) [Ind_CC-083, (E)-3-(2-chlorophenyl)-N-[6-(8-pyridin-4-yl-2,8-diazaspiro[4.5]decane-2-carbonyl)-2,3-dihydro-1H-inden-1-yl]-acrylamide] | –
100% | 99% | O=C(NCc1ccccc1Cl)NC1CCc2ccc(C(=O)N3CCC4(CCN(c5ccncc5)CC4)C3)cc21 (stereo not drawn) [Ind_CC-086, 1-[(2-chlorophenyl)-methyl]-3-[6-(8-pyridin-4-yl-2,8-diazaspiro[4.5]decane-2-carbonyl)-2,3-dihydro-1H-inden-1-yl]-urea] | –
